Laboratory results published in ChEMBL document CHEMBL1133395, “Novel oximes having 5-benzyl-2,4-thiazolidinedione as antihyperglycemic agents: synthesis and structure-activity relationship” (Bioorg Med Chem Lett, 2000).

How the values were obtained:
[1] = target: T1, Peroxisome proliferator-activated receptor gamma (Homo sapiens, UniProt P37231)
T1 sequence (P37231 whole entry): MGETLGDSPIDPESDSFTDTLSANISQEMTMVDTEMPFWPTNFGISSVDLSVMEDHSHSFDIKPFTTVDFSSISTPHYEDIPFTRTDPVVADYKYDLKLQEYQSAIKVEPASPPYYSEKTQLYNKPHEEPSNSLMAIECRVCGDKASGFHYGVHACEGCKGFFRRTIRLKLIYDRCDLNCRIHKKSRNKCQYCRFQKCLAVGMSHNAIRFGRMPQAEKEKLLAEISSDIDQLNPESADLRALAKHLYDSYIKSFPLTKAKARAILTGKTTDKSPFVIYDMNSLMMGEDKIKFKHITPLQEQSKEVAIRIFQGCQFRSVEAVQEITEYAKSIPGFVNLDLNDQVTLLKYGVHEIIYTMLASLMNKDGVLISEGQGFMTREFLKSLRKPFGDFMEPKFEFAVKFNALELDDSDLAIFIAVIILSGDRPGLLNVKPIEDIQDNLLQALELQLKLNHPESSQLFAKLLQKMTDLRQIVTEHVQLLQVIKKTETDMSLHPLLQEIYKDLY
Description: Peroxisome proliferator activated receptor gamma agonistic activity in HepG2 cells.

Mus musculus = organism: Mus musculus; assay: Blood glucose lowering activity in hyperglycemic kk mice.; type: functional; parameters: concentration or dose not given beside the values

## CC/C(=N\OCCOc1ccc(CC2SC(=O)NC2=O)cc1)c1ccc(-c2ccccc2)cc1 (stereo not drawn)
[1]
  EC50: 1.6 µM
Mus musculus
  Change: 67%

## C/C(=N\OCCOc1ccc(CC2SC(=O)NC2=O)cc1)c1ccc(-c2ccncc2)cc1 (stereo not drawn)
[1]
  EC50: 1.6 µM
Mus musculus
  Change: 44%

## CCC/C(=N\OCCOc1ccc(CC2SC(=O)NC2=O)cc1)c1ccc(-c2ccccc2)cc1 (stereo not drawn)
[1]
  EC50: > 100 µM
Mus musculus
  Change: 29%

## C/C(=N\OCCOc1ccc(CC2SC(=O)NC2=O)cc1)c1ccccc1-c1ccccc1 (stereo not drawn)
[1]
  EC50: > 100 µM
Mus musculus
  Change: 23%

## C/C(=N\OCCOc1ccc(CC2SC(=O)NC2=O)cc1)c1ccc(-c2ccccc2)nc1 (stereo not drawn)
Mus musculus
  Change: 58%

## C/C(=N\OCCOc1ccc(CC2SC(=O)NC2=O)cc1)c1ccc(-c2ccccc2)cn1 (stereo not drawn)
[1]
  EC50: 1.1 µM
Mus musculus
  Change: 61%

## C/C(=N\OCCCOc1ccc(CC2SC(=O)NC2=O)cc1)c1ccc(-c2ccccc2)cc1 (stereo not drawn)
[1]
  EC50: > 100 µM
Mus musculus
  Change: 20%

## C/C(=N\OCCOc1ccc(CC2SC(=O)NC2=O)cc1)c1ccc(-c2ccccc2)cc1 (stereo not drawn)
[1]
  EC50: 0.4 µM
Mus musculus
  Change: 67%

## C/C(=N\OCCOc1ccc(CC2SC(=O)NC2=O)cc1)c1ccccn1 (stereo not drawn)
[1]
  EC50: 2.8 µM
Mus musculus
  Change: 67%

## C/C(=N\OCCOc1ccc(CC2SC(=O)NC2=O)cc1)c1ccncc1 (stereo not drawn)
[1]
  EC50: 7.9 µM
Mus musculus
  Change: 48%

## C/C(=N\OCCOc1ccc(CC2SC(=O)NC2=O)cc1)c1cccc(-c2ccccc2)c1 (stereo not drawn)
[1]
  EC50: 0.33 µM
Mus musculus
  Change: 42%

## C/C(=N\OCCOc1ccc(CC2SC(=O)NC2=O)cc1)c1ccc(-c2cccnc2)cc1 (stereo not drawn)
[1]
  EC50: 0.8 µM
Mus musculus
  Change: 42%

## C/C(=N\OCCOc1ccc(CC2SC(=O)NC2=O)cc1)c1ccc(-c2ccccn2)cc1 (stereo not drawn)
[1]
  EC50: 0.64 µM
Mus musculus
  Change: 58%

## O=C1NC(=O)C(Cc2ccc(OCCO/N=C/c3ccc(-c4ccccc4)cc3)cc2)S1 (stereo not drawn)
[1]
  EC50: > 100 µM
Mus musculus
  Change: 7%

## C/C(=N\OCCOc1ccc(CC2SC(=O)NC2=O)cc1)c1ccccc1 (stereo not drawn)
[1]
  EC50: 1.7 µM
Mus musculus
  Change: 57%

## C/C(=N\OCCOc1ccc(CC2SC(=O)NC2=O)cc1)c1cccnc1 (stereo not drawn)
[1]
  EC50: 2.8 µM
Mus musculus
  Change: 43%

## CCc1ccc(CCOc2ccc(CC3SC(=O)NC3=O)cc2)nc1.Cl (stereo not drawn) [PIOGLITAZONE HYDROCHLORIDE]
Mus musculus
  Change: 42%

## CN(CCOc1ccc(CC2SC(=O)NC2=O)cc1)c1ccccn1.O=C(O)/C=C\C(=O)O (stereo not drawn) [ROSIGLITAZONE MALEATE]
Mus musculus
  Change: 66%
